Among the data in BindingDB's records for doi:10.1016/j.bmcl.2009.07.009 (Konkuk University, 2009) are IC50 values, retold here.

For experiment [1], the target named is T1, Replicase polyprotein 1ab (Severe acute respiratory syndrome coronavirus, UniProt P0C6X7). Description: Inhibition of ATPase activity of SARS coronavirus helicase assessed as phosphate release by malachite green assay.
The target in experiment [2] is T1, Replicase polyprotein 1ab. The experiment can be described thus: Inhibition of SARS coronavirus helicase assessed as duplex-DNA unwinding by FRET based assay.

Structures are written as SMILES.

The IC50 is the concentration that gives 50% inhibition. As for `O=c1c(O)ccc2oc(CNCc3cccc(Cl)c3)cc(O)c1-2` [2-[(3-Chloro-benzylamino)-methyl]-5,6-dihydroxy-chromen-4-one], the IC50 in experiment [1] and in experiment [2] was more than 50 µM in each case.

As for `O=c1c(O)ccc2oc(CNCc3ccc(Cl)cc3)cc(O)c1-2` [2-[(4-Chloro-benzylamino)-methyl]-5,6-dihydroxy-chromen-4-one], the IC50 in experiment [1] and in experiment [2] was more than 50 µM throughout.

Turning to `N#Cc1cccc(CNCc2cc(O)c3c(=O)c(O)ccc-3o2)c1` [3-{[(5,6-Dihydroxy-4-oxo-4H-chromen-2-ylmethyl)-amino]-methyl}-benzonitrile], the IC50 in experiment [1] and in experiment [2] was more than 50 µM in each case.
